Experimental data reported in patent US9382290B2, “Aptamer-modified polymeric materials for the binding of factors in a wound environment” (KCI LICENSING, INC., priority 2011, dated 2016).
Where no end group is shown, it is not given here. [ ]: non-standard residue; d: D form. AEEA = NCCOCCOCC(=O)O

Legend:
[1] = system: VEGF; assay: VEGF capture by P16-linker-ROCF construct, elution and ELISA; type: binding
Description: C1 was ROCF alone; C2 was ROCF+EMCS−P16; C3 was ROCF−EMCS+P16; C4 was silanated ROCF alone; C5=silanated ROCF+EMCS−P16; C6 was silanated ROCF−EMCS+P16; 51 was 50× Sulfo-EMCS+P16; and S2 was 100× Sulfo-EMCS+P16. W=Final subsequent PBS wash. E1=50 mM Tris, 80 mM NaCl, 250 mM Imidazole, 45 min. […] E1 (right) indicates the amount of VEGF dislodged from the foam and peptide with an […] after the last wash. […] S2 bound 584 pg/mL, whereas C4 bound 321 pg/m. S2 has the highest concentration of EMCS and therefore the most covalently bound P16. […] Data are given as mean±standard deviation.
P16 was conjugated to ROCF, incubated with VEGF, washed stringently, then eluted with an […]. In this experiment, the test group (P16-linker-foam) bound 584 pg/mL, whereas the greatest negative control bound 321 pg/mL. Non-specific binding was expected due to the hydrophobic nature of both the ROCF and the target protein VEGF.
Target sequence in this assay (P15692 207-320 limits assumed): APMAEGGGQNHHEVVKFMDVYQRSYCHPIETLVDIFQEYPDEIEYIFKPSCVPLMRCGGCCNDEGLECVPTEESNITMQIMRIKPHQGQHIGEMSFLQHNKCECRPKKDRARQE

[2] = system: VEGF; assay: Binding of P-16 to VEGF (statement)
Target sequence in this assay (P15692 207-311 limits assumed): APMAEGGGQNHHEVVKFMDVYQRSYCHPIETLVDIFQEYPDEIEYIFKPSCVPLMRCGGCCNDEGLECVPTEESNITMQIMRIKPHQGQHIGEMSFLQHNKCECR

[3] = system: PDGF; assay: Binding of P-16 to PDGF (statement)
[4] = molecular target: granulocyte macrophage colony stimulating factor (GM-CSF) (Homo sapiens, UniProt P04141); assay: GM-CSF capture by P22-modified silylated 30 PHR chitosan foam, elution and ELISA; type: binding; settings: 333 ng/mL GM-CSF incubated 24 hr; unbound washed off; eluted with imidazole-based buffer E1; 30 PHR chitosan foam silylated with compound 602
Description: FIG. 8: Silylated with compound 602, 30 PHR Chitosan/P-22 captures more granulocyte macrophage colony stimulating factor (GM-CSF). Briefly, 333 ng/mL of GM-CSF was incubated with the samples for 24 hr. The unbound protein was washed off then the samples were eluted with an imidazole-based buffer, E1. The samples were cleaned up via buffer exchange with PBS and quantified by ELISA.
The test procedure used included the steps listed below: All buffers and reagents were prepared in advance, except the Sulfo-EMCS, which was reconstituted immediately before use. See Sulfo-EMCS Product Instructions (Thermo Scientific-Pierce), which is incorporated by reference herein in its entirety. • 1.1. BupH Borate Buffer: Two packs BupH Borate Buffer powderwere added to 1 L DI H2O as per manufacturer's instructions. • 1.2. Conjugation Buffer, BupH Borate Buffer/5 mM EDTA was prepared by dissolving 146 mg EDTA in 500 mL BupH Borate Buffer. • 1.3. Sulfo-EMCS, allowed to warm to RT, was reconstituted immediately before performing the Sulfo-EMCS addition step. […]
• 1.8. • 1.8.1. […] Use the coupons immediately for growth factor binding or transfer the moist coupons to a capped vial and store them at 4° C. until ready for use for no longer than. […] The unbound proteins were washed off then the samples were eluted with an imidazole-based buffer, E1 before a buffer exchange with PBS and quantification via ELISA.

[5] = molecular target: GM-CSF (Homo sapiens, UniProt P04141); assay: GM-CSF capture by P22-linker-ROCF construct, elution and ELISA; type: binding; settings: upon elution; sample with the most capture peptide vs ROCF alone
Description: FIG. 11 provides elution results for the P22/GM-CSF experiment. P22 was obtained from the Bachem Americas Inc. 2010 peptide catalog. P22 is a GM-CSF antagonist that binds GM-CSF in an inhibitory manner. Briefly, 330 nmol P22 was conjugated to a polyurethane-based ROCF via Sulfo-EMCS chemistry. The P22-linker-foam construct was incubated with 1 μg GM-CSF overnight, washed five times, and subjected to stringent elutions. […] Upon elution, the sample with the most capture peptide, S3, outperformed ROCF alone by 49%. […] Samples S1-S3 all contained peptide-linker-foam with Sulfo-EMCS concentration increasing from S1 to S3 (S1=10× Sulfo-EMCS+P22; S2=25× Sulfo-EMCS+P22 and S3=50× Sulfo-EMCS+P22), C1 was ROCF alone, C2 was Silanated ROCF+EMCS−P22 and C3 was Silanated ROCF−EMCS+P22. There were no positive controls available for this experiment, as no technology has yet been proven to covalently conjugate peptides to polyurethane. However, positive controls were later developed for subsequent experiments based on experimental results. Data are given as mean±standard deviation.
With the -Sil bond, a “capture peptide” was next conjugated to the amino-functionalized ROCF. To do so, Sulfo-EMCS chemistry developed in Example 2 was used to conjugate a commercially available GM-CSF antagonist capture peptide, P22, to ROCF. […] The eluted GM-CSF was quantified via ELISA (FIG. 11). […]

Chain of GM-CSF (P04141 18-144, species assumed): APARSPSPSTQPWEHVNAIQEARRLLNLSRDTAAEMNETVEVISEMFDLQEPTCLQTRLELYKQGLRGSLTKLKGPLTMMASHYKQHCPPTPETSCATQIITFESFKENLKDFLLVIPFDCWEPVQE
Chain of granulocyte macrophage colony stimulating factor (GM-CSF) (P04141 18-144, species assumed): as above

Substance	VEGF bound (elution E1, ELISA) ([1]; P16 conjugated to silanated ROCF via Sulfo-EMCS, incubated with VEGF, washed, E1 = 50 mM Tris, 80 mM NaCl, 250 mM Imidazole, 45 min) [pg/mL]	more VEGF bound than greatest negative control (silanated ROCF, C4) ([1]; elution data) [%]	binding to VEGF [2]	binding to PDGF [3]	GM-CSF captured (eluted, quantified by ELISA) [4] [pg/mL]	more GM-CSF captured than ROCF alone [5] [%]
GHQGQHIGQMS-AEEAc-Cys-NH2 (GHQGQHIGQMS[AEEA]C-NH2; N-terminus assumed; SMILES CC[C@H](C)[C@H](NC(=O)[C@H](Cc1c[nH]cn1)NC(=O)[C@H](CCC(N)=O)NC(=O)CNC(=O)[C@H](CCC(N)=O)NC(=O)[C@H](Cc1c[nH]cn1)NC(=O)CN)C(=O)NCC(=O)N[C@@H](CCC(N)=O)C(=O)N[C@@H](CCSC)C(=O)N[C@@H](CO)C(=O)NCCOCCOCC(=O)N[C@@H](CS)C(N)=O; listed as Homo sapiens) [P16, Anti-VEGF peptide designed de novo]	584	82	shown to bind	shown to bind	–	–
NAIQEARRLLNLSRD (listed as Homo sapiens) [P22, Commercially available anti-GM-CSF peptide (Bachem), GM-CSF antagonist]	–	–	–	–	299	49
